Experimental data taken from patent publication US20230136562A1, “SPIROUREA DERIVATIVES” (Idorsia Pharmaceuticals Ltd, priority 2020, published 2023).
Read-outs that look alike come from different tables or passages of the source.

System: primary neuronal cultures from embryonic rat brains
Assay: Rat oscillation assay (FLIPR, neuronal calcium oscillations)
Format: cell-based
In short: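 Cortical neurons from E18 Wistar rat embryos, cultured 8–10 days at high density, loaded with 1 μM Fluo-8 AM; calcium oscillations recorded by FLIPR once per second in Mg-free HBSS with 2 mM CaCl2, 20 mM HEPES, pH 7.4. Two acquisitions ("Acute", 500 sec, compound added at 250 sec; "20 min"), ± Kv7 blocker XE-991.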

[1] = Rattus norvegicus, 20 min, AUC of fluorescence measured 20 min after compound addition, read-out: FLIPR: IC50 [nM] 20 min
[2] = Rattus norvegicus, Acute phase, ratio of AUC fluorescence before and after compound addition, read-out: FLIPR: IC50 [nM] acute

| Structure (SMILES) | IC50 [1] [nM] | IC50 [2] [nM] | IC50 (Acute phase, ratio of AUC fluorescence before and after compound addition, read-out: FLIPR: IC50 [nM] acute) [nM] |
| --- | --- | --- | --- |
| C[C@@H](NC(=O)NC1CC2(CCC2)C1)c1cc(OCC(F)(F)F)ncn1 (single isomer, unassigned) [Example 183] | 1990 | 1420 |  |
| O=C(NCc1ccc(F)c(C(F)(F)F)c1)NC1CC2(CCC2)C1 [Example 17, 1-(4-Fluoro-3-trifluoromethyl-benzyl)-3-spiro[3.3]hept-2-yl-urea] | 145 | 141 |  |
| CC(NC(=O)NC1CC2(CCC2)C1)c1cc(OCC(F)(F)F)ccc1Cl (racemic) [Example 39, (±)-1-{1-[2-Chloro-5-(2,2,2-trifluoro-ethoxy)-phenyl]-ethyl}-3-spiro[3.3]hept-2-yl-urea] | 571 | 487 |  |
| CCOCCC(NC(=O)NC1CC2(CCC2)C1)c1ccnc(OCC(F)(F)F)c1 (racemic) [Example 77, (±)-1-{3-Ethoxy-1-[2-(2,2,2-trifluoro-ethoxy)-pyridin-4-yl]-propyl}-3-spiro[3.3]hept-2-yl-urea] | 226 | 279 |  |
| O=C(NCc1cccc(S(F)(F)(F)(F)F)c1)NC1CC2(CCC2)C1 [Example 35, 1-(3-(pentafluoro-λ^6-sulfaneyl)benzyl)-3-(spiro[3.3]heptan-2-yl)urea] | 24 | 22 |  |
| O=C(NC1CC2(CCC2)C1)N1CCc2c(ccnc2OCC(F)(F)F)C1 [Example 53, 5-(2,2,2-Trifluoro-ethoxy)-3,4-dihydro-1H-[2,6]naphthyridine-2-carboxylic acid spiro[3.3]hept-2-ylamide] | 226 | 185 |  |
| COCC(NC(=O)NC1CC2(CCC2)C1)c1cccc(OCC(F)(F)F)c1 (racemic) [Example 91, (±)-1-{2-Methoxy-1-[3-(2,2,2-trifluoro-ethoxy)-phenyl]-ethyl}-3-spiro[3.3]hept-2-yl-urea] | 1.4 | 3.4 |  |
| NC(=O)C(NC(=O)NC1CC2(CCC2)C1)c1cccc(C(F)(F)F)c1 (racemic) [Example 62, (±)-2-(3-Spiro[3.3]hept-2-yl-ureido)-2-(3-trifluoromethyl-phenyl)-acetamide] | 65 | 50 |  |
| O=C(NCc1ccc(F)c(C(F)(F)F)c1)NC1CC2(CC2)C1 [Example 148, 1-(4-Fluoro-3-trifluoromethyl-benzyl)-3-spiro[2.3]hex-5-yl-urea] | 355 | 312 |  |
| O=C(NCc1ccc(F)c(OCC(F)(F)F)c1)NC1CC2(CCC2)C1 [Example 114, 1-[4-Fluoro-3-(2,2,2-trifluoro-ethoxy)-benzyl]-3-spiro[3.3]hept-2-yl-urea] | 61 | 107 |  |
| COCC(NC(=O)NC1CC2(CCC2)C1)c1cc(OCC(F)(F)F)ncn1 (racemic) [Example 78, (±)-1-{2-Methoxy-1-[6-(2,2,2-trifluoro-ethoxy)-pyrimidin-4-yl]-ethyl}-3-spiro[3.3]hept-2-yl-urea] | 7.2 | 9.4 |  |
| CS(=O)(=O)CC(NC(=O)NC1CC2(CCC2)C1)c1cccc(C(F)(F)F)c1 (racemic) [Example 69, (±)-1-[2-Methanesulfonyl-1-(3-trifluoromethyl-phenyl)-ethyl]-3-spiro[3.3]hept-2-yl-urea] | 83 | 95 |  |
| CC(NC(=O)NC1CC2(CC2)C1)c1cccc(OCC(F)(F)F)c1F (racemic) [Example 131, (±)-1-{1-[2-Fluoro-3-(2,2,2-trifluoro-ethoxy)-phenyl]-ethyl}-3-spiro[2.3]hex-5-yl-urea] | 52 | 29 |  |
| O=C(NCc1cccc(C(F)(F)F)c1)NC1CC2(C1)CC2(F)F (single isomer, unassigned) [Example 5, 1-(1,1-Difluoro-spiro[2.3]hex-5-yl)-3-(3-trifluoromethyl-benzyl)-urea] | 156 |  | 82 |
| O=C(NC1CC2(CC2)C1)NC1(c2cccc(OC(F)F)c2)CC1 [Example 136, 1-[1-(3-Difluoromethoxy-phenyl)-cyclopropyl]-3-spiro[2.3]hex-5-yl-urea] | 386 | 334 |  |
| O=C(NC1CC2(CC2)C1)NC(CO)c1cccc(C(F)(F)F)c1 (racemic) [Example 143, (±)-1-[2-Hydroxy-1-(3-trifluoromethyl-phenyl)-ethyl]-3-spiro[2.3]hex-5-yl-urea] | 61 | 42 |  |
| CC(NC(=O)NC1CC2(CC2)C1)c1cc(OCC(F)(F)F)ncn1 (racemic) [Example 144, (±)-1-Spiro[2.3]hex-5-yl-3-{1-[6-(2,2,2-trifluoro-ethoxy)-pyrimidin-4-yl]-ethyl}-urea] | 119 | 96 |  |
| O=C(NC1CC2(CCC2)C1)NC(CO)c1cccc(OCC(F)(F)F)c1 (racemic) [Example 87, (±)-1-{2-Hydroxy-1-[3-(2,2,2-trifluoro-ethoxy)-phenyl]-ethyl}-3-spiro[3.3]hept-2-yl-urea] | 12 | 21 |  |
| COCC(NC(=O)NC1CC2(CC2)C1)c1ccnc(OCC(F)(F)F)c1 (racemic) [Example 154, (±)-1-{2-Methoxy-1-[2-(2,2,2-trifluoro-ethoxy)-pyridin-4-yl]-ethyl}-3-spiro[2.3]hex-5-yl-urea] | 24 | 8.1 |  |
| COCC(NC(=O)NC1CC2(CCC2)C1)c1ccnc(OC(F)F)c1 (racemic) [Example 10, (±)-1-[1-(2-Difluoromethoxy-pyridin-4-yl)-2-methoxy-ethyl]-3-spiro[3.3]hept-2-yl-urea] | 6 | 6.2 |  |
| CC(NC(=O)NC1CC2(CCC2)C1)c1ccc2c(c1)OC(F)(F)O2 (racemic) [Example 65, (±)-1-[1-(2,2-Difluoro-benzo[1,3]dioxol-5-yl)-ethyl]-3-spiro[3.3]hept-2-yl-urea] | 10 | 6.7 |  |
| CC(Oc1cc(F)cc(CNC(=O)NC2CC3(CCC3)C2)c1)C(F)(F)F (racemic) [Example 110, (±)-1-[3-Fluoro-5-(2,2,2-trifluoro-1-methyl-ethoxy)-benzyl]-3-spiro[3.3]hept-2-yl-urea] | 62 | 88 |  |
| O=C(NC1CC2(CCC2)C1)NC(CCO)c1cccc(OCC(F)(F)F)c1 (racemic) [Example 88, (±)-1-{3-Hydroxy-1-[3-(2,2,2-trifluoro-ethoxy)-phenyl]-propyl}-3-spiro[3.3]hept-2-yl-urea] | 28 | 45 |  |
| CS(=O)(=O)CC(NC(=O)NC1CC2(CCC2)C1)c1cccc(OC(F)(F)F)c1 (racemic) [Example 64, (±)-1-[2-Methanesulfonyl-1-(3-trifluoromethoxy-phenyl)-ethyl]-3-spiro[3.3]hept-2-yl-urea] | 47 | 44 |  |
| O=C(NCc1cccc(C(F)(F)F)c1F)NC1CC2(CC2)C1 [Example 149, 1-(2-Fluoro-3-trifluoromethyl-benzyl)-3-spiro[2.3]hex-5-yl-urea] | 103 | 98 |  |
| Cc1c(OCC(F)(F)F)cccc1C(C)NC(=O)NC1CC2(CCC2)C1 (racemic) [Example 29, (±)-1-{1-[2-Methyl-3-(2,2,2-trifluoro-ethoxy)-phenyl]-ethyl}-3-spiro[3.3]hept-2-yl-urea] | 253 | 452 |  |
| O=C(NCc1cccc(C(F)(F)F)c1F)NC1CC2(CCC2)C1 [Example 12, 1-(2-Fluoro-3-trifluoromethyl-benzyl)-3-spiro[3.3]hept-2-yl-urea] | 55 | 36 |  |
